Converted amounts (≈) assume the structure as drawn.
Tests used:
Assay in all cases: Antibacterial activity (MIC), standard method of the Japanese Society of Chemotherapy
Assay type in all cases: cell-based
[1] = tested on: E. coli NIHJ; conditions: Escherichia coli
Protocol: (§1) Antibacterial activity of the compounds of the present invention was measured in accordance with the standard method specified by the Japanese Society of Chemotherapy.

[2] = tested on: K. pneumoniae TYPE 1; conditions: Klebsiella pneumoniae, TYPE1
Protocol: as §1

[3] = tested on: H. influenzae ATCC49247; conditions: Haemophilus influenzae, ATCC 25238 / ATCC 49247; H. influenzae ATCC25238 as printed (second half of Table 2); read-out: MIC, H. influenzae ATCC25238
Protocol: as §1

[4] = tested on: S. marcescens 10100; conditions: Serratia marcescens
Protocol: as §1

[5] = tested on: S. aureus 870307; conditions: Staphylococcus aureus
Protocol: as §1

[6] = tested on: S. aureus FDA 209-P; conditions: Staphylococcus aureus, FDA209
Protocol: as §1

[7] = tested on: S. pneumoniae J24; conditions: Streptococcus pneumoniae
Protocol: as §1

[8] = tested on: P. mirabilis 08103; conditions: Proteus mirabilis
Protocol: as §1

[9] = tested on: P. aeruginosa PAO1; conditions: Pseudomonas aeruginosa
Protocol: as §1

[10] = tested on: E. faecalis 19433; conditions: Enterococcus faecalis
Protocol: as §1

[11] = tested on: S. pneumoniae 104835; conditions: Streptococcus pneumoniae
Protocol: as §1

[12] = tested on: E. cloacae 03400; conditions: Enterobacter cloacae
Protocol: as §1

[13] = tested on: S. epidermidis 56500; conditions: Staphylococcus epidermidis
Protocol: as §1

[14] = tested on: M(B). Caterrhalis ATCC25238; conditions: M(B). Caterrhalis [sic] ATCC49247 (Table 2); read-out: MIC, M(B). Caterrhalis ATCC49247
Protocol: as §1

[15] = tested on: S. pyogenes JCM5674(ATCC12344); conditions: Streptococcus pyogenes
Protocol: as §1

MIC [1] | MIC [2] | MIC [3] | MIC [4] | MIC [5] | MIC [6] | MIC [7] | MIC [8] | MIC [9] | MIC [10] | MIC [11] | MIC [12] | MIC [13] | MIC [14] | MIC [15] | SMILES
0.006 µg/mL (≈ 0.0149 µM) | 0.025 µg/mL (≈ 0.0623 µM) | 0.006 µg/mL (≈ 0.0149 µM) | 0.05 µg/mL (≈ 0.125 µM) | 0.39 µg/mL (≈ 0.972 µM) | 0.025 µg/mL (≈ 0.0623 µM) | 0.1 µg/mL (≈ 0.249 µM) | 0.012 µg/mL (≈ 0.0299 µM) | 0.2 µg/mL (≈ 0.498 µM) | 0.1 µg/mL (≈ 0.249 µM) | 0.39 µg/mL (≈ 0.972 µM) | 0.006 µg/mL (≈ 0.0149 µM) | 0.05 µg/mL (≈ 0.125 µM) | 0.012 µg/mL (≈ 0.0299 µM) | 0.05 µg/mL (≈ 0.125 µM) | C[C@H]1COc2c(N3C[C@@H]4CCCC[C@@]4(N)C3)c(F)cc3c(=O)c(C(=O)O)cn1c23 [Example 34, 10-[(1S,6S)-1-Amino-8-azabicyclo[4.3.0]nonan-8-yl]-9-fluoro-2,3-dihydro-3-(S)-methyl-7-oxo-7H-pyrido[1,2,3-de][1,4]benzoxazine-6-carboxylic acid]
0.006 µg/mL (≈ 0.0139 µM) | 0.05 µg/mL (≈ 0.116 µM) | 0.012 µg/mL (≈ 0.0278 µM) | 0.1 µg/mL (≈ 0.232 µM) | 0.2 µg/mL (≈ 0.464 µM) | 0.025 µg/mL (≈ 0.0579 µM) | 0.05 µg/mL (≈ 0.116 µM) | 0.025 µg/mL (≈ 0.0579 µM) | 0.39 µg/mL (≈ 0.904 µM) | 0.2 µg/mL (≈ 0.464 µM) | 0.39 µg/mL (≈ 0.904 µM) | 0.012 µg/mL (≈ 0.0278 µM) | 0.05 µg/mL (≈ 0.116 µM) | 0.025 µg/mL (≈ 0.0579 µM) | 0.05 µg/mL (≈ 0.116 µM) | COc1c(N2C[C@@H]3CC=CC[C@@]3(N)C2)c(F)cc2c(=O)c(C(=O)O)cn([C@@H]3C[C@@H]3F)c12 [Example 35, 7-[(1S,6S)-1-Amino-8-azabicyclo[4.3.0]non-3-en-8-yl]-6-fluoro-1-[(1R,2S)-2-fluorocyclopropyl]-1,4-dihydro-8-methoxy-4-oxoquinoline-3-carboxylic acid]
0.006 µg/mL (≈ 0.0138 µM) | 0.1 µg/mL (≈ 0.23 µM) | ≤ 0.003 µg/mL | 0.2 µg/mL (≈ 0.459 µM) | 0.05 µg/mL (≈ 0.115 µM) | 0.006 µg/mL (≈ 0.0138 µM) | 0.05 µg/mL (≈ 0.115 µM) | 0.05 µg/mL (≈ 0.115 µM) | 1.56 µg/mL (≈ 3.58 µM) | 0.1 µg/mL (≈ 0.23 µM) | 0.39 µg/mL (≈ 0.896 µM) | 0.025 µg/mL (≈ 0.0574 µM) | 0.012 µg/mL (≈ 0.0276 µM) | 0.025 µg/mL (≈ 0.0574 µM) | 0.05 µg/mL (≈ 0.115 µM) | COc1c(N2C[C@@H]3COCC[C@@]3(N)C2)c(F)cc2c(=O)c(C(=O)O)cn([C@@H]3C[C@@H]3F)c12 [Example 37, 7-[(1S,6S)-1-Amino-4-oxa-8-azabicyclo[4.3.0]nonan-8-yl]-6-fluoro-1-[(1R,2S)-2-fluorocyclopropyl]-1,4-dihydro-8-methoxy-4-oxoquinoline-3-carboxylic acid]
0.006 µg/mL (≈ 0.0138 µM) | 0.05 µg/mL (≈ 0.115 µM) | 0.006 µg/mL (≈ 0.0138 µM) | 0.2 µg/mL (≈ 0.459 µM) | 0.2 µg/mL (≈ 0.459 µM) | 0.012 µg/mL (≈ 0.0276 µM) | 0.1 µg/mL (≈ 0.23 µM) | 0.025 µg/mL (≈ 0.0574 µM) | 0.78 µg/mL (≈ 1.79 µM) | 0.2 µg/mL (≈ 0.459 µM) | 0.78 µg/mL (≈ 1.79 µM) | 0.012 µg/mL (≈ 0.0276 µM) | 0.05 µg/mL (≈ 0.115 µM) | 0.025 µg/mL (≈ 0.0574 µM) | 0.05 µg/mL (≈ 0.115 µM) | COc1c(N2C[C@@H]3CCOC[C@@]3(N)C2)c(F)cc2c(=O)c(C(=O)O)cn([C@@H]3C[C@@H]3F)c12 [Example 43, 7-[(1S,6S)-1-Amino-8-aza-3-oxabicyclo[4,3,0]nonan-8-yl]-6-fluoro-1-[(1R,2S)-2-fluorocyclopropyl]-1,4-dihydro-8-methoxy-4-oxoquinoline-3-carboxylic acid]
0.012 µg/mL (≈ 0.0332 µM) | 0.05 µg/mL (≈ 0.138 µM) | 0.012 µg/mL (≈ 0.0332 µM) | 0.05 µg/mL (≈ 0.138 µM) | 6.25 µg/mL (≈ 17.3 µM) | 0.1 µg/mL (≈ 0.277 µM) | 0.78 µg/mL (≈ 2.16 µM) | 0.025 µg/mL (≈ 0.0692 µM) | 0.39 µg/mL (≈ 1.08 µM) | 0.78 µg/mL (≈ 2.16 µM) | > 6.25 µg/mL | 0.012 µg/mL (≈ 0.0332 µM) | 0.39 µg/mL (≈ 1.08 µM) | 0.025 µg/mL (≈ 0.0692 µM) | 0.39 µg/mL (≈ 1.08 µM) | C[C@H]1COc2c(N3CCN(C)CC3)c(F)cc3c(=O)c(C(=O)O)cn1c23 [LVFX, levofloxacin, reference compound]
